From patent publication US9688865B2, “Liquid composition, pigment dispersion liquid, and aqueous ink composition for ink jet recording” (Seiko Epson Corporation, priority 2015, dated 2017)

Key:
[1] = Distribution coefficient of water-octanol (log P), OECD Test Guideline 107

Row | Compound | logP (physchem) | logP [1]
1 | OCC(CO)(CO)CO [Pentaerythritol] | -2.36 | 
2 | CCCCCCCC(=O)OCC(CO)(CO)CO [Pentaerythritol caprylate, pentaerythritol caprylate] |  | 2.29
